Assay results as given in patent US11708348B2, “Protease inhibitors for treatment of coronavirus infections” (The Scripps Research Institute, priority 2021, dated 2023).
Where two headings read alike, the source gives them in different places.

System: SARS-CoV-2 strain USA-WA1/2020
Experiment: microbe, parasite or virus in culture
Format: cell-based
Settings: Severe acute respiratory syndrome coronavirus 2, HeLa-ACE2, 24 h, HeLa-ACE2 cells, SARS-CoV-2 infection, 24 h, read-out: EC50, uM (Hela)

Compound	EC50 (class symbols) [µM]	EC50 (bound printed in cell) [µM]
CC(C)(C)CC(O)C(=O)N1C[C@H]2[C@@H]([C@H]1C(=O)N[C@@H](C[C@@H]1CCNC1=O)C(=O)COC(F)(F)F)C2(C)C (stereo partly drawn) [Compound 347, (1R,2S,5S)-3-(2-hydroxy-4,4-dimethylpentanoyl)-6,6-dimethyl-N-((S)-3-oxo-1-((S)-2-oxopyrrolidin-3-yl)-4-(trifluoromethoxy)butan-2-yl)-3-azabicyclo-[3.1.0]hexane-2-carboxamide]	< 0.05	–
CC(C)(C)CC(O)C(=O)N1C[C@@H]2CCC[C@@H]2[C@H]1C(=O)N[C@@H](C[C@@H]1CCNC1=O)C(=O)COC(F)(F)F (stereo partly drawn) [Compound 348, (1S,3aR,6aS)-2-(2-hydroxy-4,4-dimethylpentanoyl)-N-((S)-3-oxo-1-((S)-2-oxopyrrolidin-3-yl)-4-(trifluoromethoxy)butan-2-yl)octahydrocyclo-penta[c]pyrrole-1-carboxamide]	< 0.05	–
CC(C)(C)C[C@H](O)C(=O)N1CC2(CC2)C[C@H]1C(=O)N[C@@H](C[C@@H]1CCNC1=O)C(=O)COC(F)(F)F [Compound 349, (S)-5-((S)-2-hydroxy-4,4-dimethylpentanoyl)-N-((S)-3-oxo-1-((S)-2-oxopyrrolidin-3-yl)-4-(trifluoromethoxy)butan-2-yl)-5-azaspiro[2.4]heptane-6-carboxamide]	< 0.05	–
CC(C)(F)C[C@H](O)C(=O)N1CC2(CC2)C[C@H]1C(=O)N[C@@H](C[C@@H]1CCNC1=O)C(=O)COC(F)(F)F [Compound 350, (S)-5-((S)-4-fluoro-2-hydroxy-4-methylpentanoyl)-N-((S)-3-oxo-1-((S)-2-oxopyrrolidin-3-yl)-4-(trifluoromethoxy)butan-2-yl)-5-azaspiro[2.4]-heptane-6-carboxamide]	0.05 to 0.2	–
CC(C)(O)C(=O)N1C[C@H]2[C@@H]([C@H]1C(=O)N[C@@H](C[C@@H]1CCNC1=O)C(=O)COC(F)(F)F)C2(C)C [Compound 351, (1R,2S,5S)-3-(2-hydroxy-2-methylpropanoyl)-6,6-dimethyl-N-((S)-3-oxo-1-((S)-2-oxopyrrolidin-3-yl)-4-(trifluoromethoxy)butan-2-yl)-3-azabicyclo-[3.1.0]hexane-2-carboxamide]	0.05 to 0.2	–
CC(C)(O)C(=O)N1C[C@@H]2CCC[C@@H]2[C@H]1C(=O)N[C@@H](C[C@@H]1CCNC1=O)C(=O)COC(F)(F)F [Compound 352, (1S,3aR,6aS)-2-(2-hydroxy-2-methylpropanoyl)-N-((S)-3-oxo-1-((S)-2-oxopyrrolidin-3-yl)-4-(trifluoromethoxy)butan-2-yl)octahydrocyclo-penta[c]pyrrole-1-carboxamide]	0.05 to 0.2	–
CC(C)C[C@H](NC(=O)C(C)(C)O)C(=O)N[C@@H](C[C@@H]1CCNC1=O)C(=O)COC(F)(F)F [Compound 353, (S)-2-(2-hydroxy-2-methylpropanamido)-4-methyl-N-((S)-3-oxo-1-((S)-2-oxopyrrolidin-3-yl)-4-(trifluoromethoxy)butan-2-yl)pentanamide]	0.05 to 0.2	–
CC(C)(O)C(=O)N1CC2(CC2)C[C@H]1C(=O)N[C@@H](C[C@@H]1CCNC1=O)C(=O)COC(F)(F)F [Compound 354, (S)-5-(2-hydroxy-2-methylpropanoyl)-N-((S)-3-oxo-1-((S)-2-oxopyrrolidin-3-yl)-4-(trifluoromethoxy)butan-2-yl)-5-azaspiro[2.4]-heptane-6-carboxamide]	0.05 to 0.2	–
CC(C)C[C@H](NC(=O)[C@H](O)C(C)C)C(=O)N[C@@H](C[C@@H]1CCNC1=O)C(=O)COC(F)(F)F [Compound 355, (S)-2-((R)-2-hydroxy-3-methylbutanamido)-4-methyl-N-((S)-3-oxo-1-((S)-2-oxopyrrolidin-3-yl)-4-(trifluoromethoxy)butan-2-yl)pentanamide]	0.05 to 0.2	–
CC(C)[C@@H](O)C(=O)N1CC2(CC2)C[C@H]1C(=O)N[C@@H](C[C@@H]1CCNC1=O)C(=O)COC(F)(F)F [Compound 356, (S)-5-((R)-2-hydroxy-3-methylbutanoyl)-N-((S)-3-oxo-1-((S)-2-oxopyrrolidin-3-yl)-4-(trifluoromethoxy)butan-2-yl)-5-azaspiro[2.4]heptane-6-carboxamide]	0.05 to 0.2	–
CC(C)[C@@H](O)C(=O)N1C[C@H]2[C@@H]([C@H]1C(=O)N[C@@H](C[C@@H]1CCNC1=O)C(=O)COC(F)(F)F)C2(C)C [Compound 357, (1R,2S,5S)-3-((R)-2-hydroxy-3-methylbutanoyl)-6,6-dimethyl-N-((S)-3-oxo-1-((S)-2-oxopyrrolidin-3-yl)-4-(trifluoromethoxy)butan-2-yl)-3-azabicyclo-[3.1.0]hexane-2-carboxamide]	0.05 to 0.2	–
CC(C)[C@H](O)C(=O)N1CC2(CC2)C[C@H]1C(=O)N[C@@H](C[C@@H]1CCNC1=O)C(=O)COC(F)(F)F [Compound 358, (S)-5-((S)-2-hydroxy-3-methylbutanoyl)-N-((S)-3-oxo-1-((S)-2-oxopyrrolidin-3-yl)-4-(trifluoromethoxy)butan-2-yl)-5-azaspiro-[2.4]heptane-6-carboxamide]	0.05 to 0.2	–
CC(C)[C@@H](O)C(=O)N1C[C@@H]2CCC[C@@H]2[C@H]1C(=O)N[C@@H](C[C@@H]1CCNC1=O)C(=O)COC(F)(F)F [Compound 359, (1S,3aR,6aS)-2-((R)-2-hydroxy-3-methylbutanoyl)-N-((S)-3-oxo-1-((S)-2-oxopyrrolidin-3-yl)-4-(trifluoromethoxy)butan-2-yl)octahydrocyclo-penta[c]pyrrole-1-carboxamide]	0.05 to 0.2	–
CC(C)CC(C)(O)C(=O)N1CC2(CC2)C[C@H]1C(=O)N[C@@H](C[C@@H]1CCNC1=O)C(=O)COC(F)(F)F (stereo partly drawn) [Compound 360, (6S)-5-(2-hydroxy-2,4-dimethylpentanoyl)-N-((S)-3-oxo-1-((S)-2-oxopyrrolidin-3-yl)-4-(trifluoromethoxy)butan-2-yl)-5-azaspiro[2.4]-heptane-6-carboxamide]	< 0.05	–
CC(C)C[C@@H](O)C(=O)N1C[C@H]2[C@@H]([C@H]1C(=O)N[C@@H](C[C@@H]1CCNC1=O)C(=O)COC(F)(F)F)C2(C)C [Compound 361, (1R,2S,5S)-3-((R)-2-hydroxy-4-methylpentanoyl)-6,6-dimethyl-N-((S)-3-oxo-1-((S)-2-oxopyrrolidin-3-yl)-4-(trifluoromethoxy)butan-2-yl)-3-azabicyclo-[3.1.0]hexane-2-carboxamide]	< 0.05	–
CC(C)C[C@@H](O)C(=O)N1C[C@@H]2CCC[C@@H]2[C@H]1C(=O)N[C@@H](C[C@@H]1CCNC1=O)C(=O)COC(F)(F)F [Compound 363, (1S,3aR,6aS)-2-((R)-2-hydroxy-4-methylpentanoyl)-N-((S)-3-oxo-1-((S)-2-oxopyrrolidin-3-yl)-4-(trifluoromethoxy)butan-2-yl)octahydrocyclo-penta[c]pyrrole-1-carboxamide]	< 0.05	–
C[C@@](O)(C(=O)N1CC2(CC2)C[C@H]1C(=O)N[C@@H](C[C@@H]1CCNC1=O)C(=O)COC(F)(F)F)c1ccccc1 [Compound 364, (S)-5-((S)-2-hydroxy-2-phenylpropanoyl)-N-((S)-3-oxo-1-((S)-2-oxopyrrolidin-3-yl)-4-(trifluoromethoxy)butan-2-yl)-5-azaspiro[2.4]-heptane-6-carboxamide]	< 0.05	–
C[C@](O)(C(=O)N1CC2(CC2)C[C@H]1C(=O)N[C@@H](C[C@@H]1CCNC1=O)C(=O)COC(F)(F)F)c1ccccc1 [Compound 365, (S)-5-((R)-2-hydroxy-2-phenylpropanoyl)-N-((S)-3-oxo-1-((S)-2-oxopyrrolidin-3-yl)-4-(trifluoromethoxy)butan-2-yl)-5-azaspiro[2.4]-heptane-6-carboxamide]	< 0.05	–
CC[C@](C)(O)C(=O)N1C[C@H]2[C@@H]([C@H]1C(=O)N[C@@H](C[C@@H]1CCNC1=O)C(=O)COC(F)(F)F)C2(C)C [Compound 367, (1R,2S,5S)-3-((S)-2-hydroxy-2-methylbutanoyl)-6,6-dimethyl-N-((S)-3-oxo-1-((S)-2-oxopyrrolidin-3-yl)-4-(trifluoromethoxy)butan-2-yl)-3-azabicyclo[3.1.0]-hexane-2-carboxamide]	–	> 1
CC[C@@H](O)C(=O)N1C[C@H]2[C@@H]([C@H]1C(=O)N[C@@H](C[C@@H]1CCNC1=O)C(=O)COC(F)(F)F)C2(C)C [Compound 368, (1R,2S,5S)-3-((R)-2-hydroxybutanoyl)-6,6-dimethyl-N-((S)-3-oxo-1-((S)-2-oxopyrrolidin-3-yl)-4-(trifluoromethoxy)butan-2-yl)-3-azabicyclo[3.1.0]= hexane-2-carboxamide]	0.05 to 0.2	–
CC[C@@H](O)C(=O)N[C@@H](CC(C)C)C(=O)N[C@@H](C[C@@H]1CCNC1=O)C(=O)COC(F)(F)F [Compound 369, (S)-2-((R)-2-hydroxybutanamido)-4-methyl-N-((S)-3-oxo-1-((S)-2-oxopyrrolidin-3-yl)-4-(trifluoromethoxy)butan-2-yl)pentanamide]	0.05 to 0.2	–
CC[C@H](O)C(=O)N1C[C@H]2[C@@H]([C@H]1C(=O)N[C@@H](C[C@@H]1CCNC1=O)C(=O)COC(F)(F)F)C2(C)C [Compound 370, (1R,2S,5S)-3-((S)-2-hydroxybutanoyl)-6,6-dimethyl-N-((S)-3-oxo-1-((S)-2-oxopyrrolidin-3-yl)-4-(trifluoromethoxy)butan-2-yl)-3-azabicyclo[3.1.0]-hexane-2-carboxamide]	0.05 to 0.2	–
CC[C@@H](O)C(=O)N1CC2(CC2)C[C@H]1C(=O)N[C@@H](C[C@@H]1CCNC1=O)C(=O)COC(F)(F)F [Compound 371, (S)-5-((R)-2-hydroxybutanoyl)-N-((S)-3-oxo-1-((S)-2-oxopyrrolidin-3-yl)-4-(trifluoromethoxy)butan-2-yl)-5-azaspiro[2.4]heptane-6-carboxamide]	0.05 to 0.2	–
CC[C@@H](O)C(=O)NC(CC1(C)CC1)C(=O)N[C@@H](C[C@@H]1CCNC1=O)C(=O)COC(F)(F)F (stereo partly drawn) [Compound 372, (2R)-2-hydroxy-N-(3-(1-methylcyclopropyl)-1-oxo-1-(((S)-3-oxo-l-((S)-2-oxopyrrolidin-3-yl)-4-(trifluoromethoxy)butan-2-yl)amino)propan-2-yl)butanamide]	0.2 to 0.5	–
